Reference: ChEMBL document CHEMBL1145291, “Metal complexes with superoxide dismutase-like activity as candidates for anti-prion drug” (Bioorg Med Chem Lett, 2006)

Experiments:
[1] = Inhibition of PrP-res formation in prion Fukuoka1 strain infected mouse N2a#58 cells relative to control; format: functional
ScN2a [2] = assay: Inhibition of PrP-res formation in mouse ScN2a cells relative to control; format: functional, cell-based
[3] = Cytotoxicity against prion Fukuoka1 strain infected mouse N2a#58 cells up to 1uM; format: cell-based
ScN2a [4] = assay: Cytotoxicity against mouse ScN2a cells up to 1 uM; format: cell-based
[5] = Cytotoxicity against prion Fukuoka1 strain infected mouse N2a#58 cells at 100 uM; format: cell-based
ScN2a [6] = assay: Cytotoxicity against mouse ScN2a cells at 100 uM; format: cell-based

Compound	IC50 [1]	IC50 (ScN2a [2])	Activity [3]	Activity (ScN2a [4])	Activity [5]	Activity (ScN2a [6])
C[n+]1ccc(-c2c3nc(c(-c4cc[n+](C)cc4)c4ccc([nH]4)c(-c4cc[n+](C)cc4)c4nc(c(-c5cc[n+](C)cc5)c5ccc2[nH]5)C=C4)C=C3)cc1	160 nM	130 nM				
c1ccc2cc(-c3ccc4ccccc4n3)ncc2c1	250 nM	5 nM	Not Active	Not Active		
O=C([O-])c1cc(-c2cc(C(=O)[O-])c3ccccc3n2)nc2ccccc12.[Na+].[Na+]			Not Active	Not Active		
O=C(O)c1ccc(-c2c3nc(c(-c4ccc(C(=O)O)cc4)c4ccc([nH]4)c(-c4ccc(C(=O)O)cc4)c4ccc([nH]4)c(-c4ccc(C(=O)O)cc4)c4nc2C=C4)C=C3)cc1	160 nM	250 nM				
Cc1cc(-c2ccccc2)c2ccc3c(-c4ccccc4)cc(C)nc3c2n1 [BATHOCUPROINE]	200 nM	80 nM	Not Active	Not Active		
Cc1ccc2ccc3ccc(C)nc3c2n1 [NEOCUPROINE]		80 nM	Not Active	Not Active		
Oc1cccc2cccnc12 [OXYQUINOLINE]					Active	Active
c1cnc2c(c1)ccc1cccnc12 [PHENANTHROLINE]					Active	Active
c1ccc(-c2cccc(-c3ccccn3)n2)nc1 [TERPYRIDINE]					Active	Active
O=S(=O)(O)c1ccc(-c2c3nc(c(-c4ccc(S(=O)(=O)O)cc4)c4ccc([nH]4)c(-c4ccc(S(=O)(=O)O)cc4)c4ccc([nH]4)c(-c4ccc(S(=O)(=O)O)cc4)c4nc2C=C4)C=C3)cc1 [TETRAPHENYLPORPHINE TETRASULFONIC ACID]	160 nM	200 nM				
C1=Cc2nc1c(-c1ccccc1)c1nc(c(-c3ccccc3)c3ccc([nH]3)c(-c3ccccc3)c3ccc([nH]3)c2-c2ccccc2)C=C1 [TETRAPHENYLPORPHYRIN]	320 nM	10 nM				
